Results as given in patent US10858344B2, “Hydantoin containing deoxyuridine triphosphatase inhibitors” (CV6 Therapeutics (NI) Limited, priority 2016, dated 2020).

Experiments:
[1] = test system: colorectal (HCT116), breast (MCF-7) and non-small cell lung (H1299, A549, H358 and H460) cell line models; assay: Colony forming assay; assay type: cell-based; details: FUdR between 0.5 and 2.5 μmol/L; all cell lines evaluated
Experimental: Colony forming assay showing the ability of colon (SW620, HCT116), non-small cell lung (A549, H460, H1299 and H358) and breast (MCF7) cancer cells to survive and proliferate following transient 24 hour exposure to test compounds, FUdR and combinations are determined. Specifically, cells are seeded at densities between 50 and 100 cells/well in 24-well plates. Twenty-four hours later, cells are treated with increasing concentrations of a rtest compound, a fixed dose of FUdR and combinations of these. After 24 hours, drug is removed, cells are rinsed and allowed to outgrow for 10-14 days. At the conclusion of the outgrowth, cells are fixed in 60% ice cold methanol and stained with 0.1% crystal violet, scanned and counted. Data is presented as percentage of untreated controls (mean±SD). Fraction affected and combination indexes are calculated according to the method of Chou and Talalay where <1 is indicative of a synergistic drug interaction.
Colony forming assays are performed to evaluate the effectiveness of test compounds alone and in combination with the fluoropyrimidine thymidylate synthase (TS) inhibitor fluorodeoxyuridine (FUdR) at reducing cancer cell viability in colorectal (HCT116), breast (MCF-7) and non-small cell lung (H1299, A549, H358 and H460) cell line models. […]

[2] = test system: colorectal (HCT116 and SW620) cell line models; assay: MTS growth inhibition assay; assay type: cell-based; details: 5-FU between 0 and 100 μmol/L; both colorectal cancer cell lines
Experimental: The Cell Titer AQueous MTS assay (Promega) is carried out according to the manufacturers guidelines. […] The combination effect is determined by the combination index (CI) method utilizing Calcusyn software (Biosoft, Ferguson, Mo.). Fraction affected (FA) is calculated from the percent growth inhibition: FA=[…]. CI values <1, synergism; 1-1.2, additive and >1.2, antagonism.
MTS growth inhibition assays are performed to evaluate the effectiveness of the test compounds alone and in combination with the fluoropyrimidine thymidylate synthase (TS) inhibitor 5-fluorouracil (5-FU) at inhibiting the growth of colorectal (HCT116 and SW620) cell line models. […] Simultaneous treatment with increasing concentrations of 5-FU and a test compound at fixed concentrations of 25 μmol/L is determined.

[3] = molecular target: recombinant human deoxyuridine nucleotidohydrolase (dUTPase) (Homo sapiens (Human), UniProt P33316); assay: fluorescence-based dUTPase inhibition assay; assay type: biochemical; details: for % relative inhibition vs. positive control: mean over three concentrations, typically 100, 50 and 25 μmol/L, compared to in-run positive control
Source text: Recombinant human deoxyuridine nucleotidohydrolase (dUTPase) is expressed and purified as described in Ladner R D, Carr S A, Huddleston M J, McNulty D E, Caradonna S J. J Biol Chem. 1996 Mar. 29; 271(13):7752-7. All drugs stocks are aliquoted and diluted as appropriate prior to use. The oligonucelotide primer, templates and fluorophore- and quencher-labeled detection probes are synthesized by Integrated DNA Technologies (Coralville, Iowa), subjected to polyacrylamide gel electrophoresis purification and reconstituted in Omnipur sterile nuclease-free water (EMD Chemicals USA, Gibbstown N.J.) at a stock concentration of 100 μmol/L. The two non-emissive (dark) quenching molecules incorporated into the detection probes include the Iowa black fluorescein quencher (IBFQ; absorption max 531 nm) and ZEN (non-abbreviation; absorption max 532 nm). The fluorescent label utilized is 6-FAM (5′-carboxyfluorescein; excitation max.=494 nm, emission max.=520 nm). Probes are further diluted to a working stock of 10 μmol/L and aliquoted to avoid repeated freeze/thaw cycles. AmpliTaq Gold DNA Polymerase, GeneAmp 10×PCR Buffer 2, MgCl2 and MicroAmp Optical 96-well Reaction Plates are purchased from Applied Biosystems (Carlsbad, Calif.). dNTPs are purchased individually at stock concentrations of 100 mmol/L from New England Biolabs at HPLC-certified >99% purity (Ipswich, Mass.).
Reaction mixtures contained primer, probe and template at an equimolar final concentration of 0.4 μmol/L. Magnesium chloride (MgCl2) is included at a final concentration of 2 mmol/L. Non-limiting dNTPs are included in the reaction mix in excess at a final concentration of 100 μmol/L (dUTP/dTTP is excluded). AmpliTaq Gold DNA polymerase is added at 0.875 U/reaction, 2.5 μl of 10×PCR buffer 2 added and nuclease-free ddH2O added to a final reaction volume of 25 μl. For dUTP inhibition analysis, the volume of ddH2O is further modified to accommodate an additional 1 μl of dUTPase (10 ng/μl) and 1 μl of inhibitor or DMSO control. Thermal profiling and fluorescence detection is performed using a customized thermal program on board a Roche Lightcycler LC480 Instrument II. For analysis of dNTPs, the thermal profile consisted of an 8 min 37° C. step followed by a 10 min 95° C. step to ‘hot-start’ the Taq polymerase and a primer extension time of up to 30 min at 60° C. Raw fluorescence spectra for 6-FAM is measured at specified time intervals to follow assay progression on board a Roche LightCycler 480 Software Version 1.5 and exported and analyzed in Microsoft Excel (Microsoft, Redmond Wash.) and Prism (GraphPad Software, La Jolla Calif.). Fluorescence values for blank reactions (limiting dNTP omitted) are subtracted to give normalized fluorescence units (NFU) to account for background fluorescence.
Test compounds are screened in a fluorescence-based assay. The assay employs a DNA polymerase-based approach utilizing an oligonucleotide template with 3 distinct regions: a 3′ primer binding region, a mid-template dUTP/thymidine triphosphate (TTP) detection region and a 5′ 6-[…] (FAM)-labeled probe binding region that incorporates a black hole quenching moiety. During the reaction, the probe and primer hybridize to the oligonucleotide template to form the template:primer:probe complex. When Taq polymerase binds to the primer in the TPP complex and dUTP is present, successful extension of the nascent strand occurs and the inherent 5′ to 3′ exonuclease activity of Taq polymerase cleaves and displaces the 6-FAM-labeled probe in a 5′ to 3′ direction, releasing the 6-FAM fluorophore from its proximity to the three quenchers. This displacement effectively disrupts the Förster resonance energy transfer (FRET) and the resulting fluorescence detected upon excitation is directly proportional to the amount of the dUTP available in the assay for incorporation. […]

Chain of recombinant human deoxyuridine nucleotidohydrolase (dUTPase) (P33316 other isoform, or with tags, fused parts or gaps): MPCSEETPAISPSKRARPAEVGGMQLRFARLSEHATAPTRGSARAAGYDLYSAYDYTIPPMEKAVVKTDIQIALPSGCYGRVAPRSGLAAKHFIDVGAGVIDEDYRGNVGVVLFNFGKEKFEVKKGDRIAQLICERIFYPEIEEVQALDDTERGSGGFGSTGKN

| SMILES | % relative inhibition vs. positive control [3] | further results |
| --- | --- | --- |
| O=c1[nH]c(=O)n([C@H]2C[C@H](O)[C@@H](CO)O2)cc1F [FUdR, fluorodeoxyuridine] |  | colonies formed [1]: dose-dependent decreases in colonies formed |
| O=c1[nH]cc(F)c(=O)[nH]1 [5-FU, 5-fluorouracil] |  | growth inhibition [2]: dose-dependent increases in growth inhibition |
| C[C@H](NS(=O)(=O)CCCCCN1CC(=O)NC1=O)c1ccc(F)c(OCCC2CC2)c1 [compound 128, (S)—N-(1-(3-(2-cyclopropylethoxy)-4-fluorophenyl)ethyl)-5-(2,4-dioxoimidazolidin-1-yl)pentane-1-sulfonamide] | 53% |  |
| C[C@@H](NS(=O)(=O)CCCCCN1CC(=O)NC1=O)c1ccc(F)c(OC2CCOCC2)c1 [Example 98, (R)-5-(2,4-dioxoimidazolidin-1-yl)-N-(1-(4-fluoro-3-((tetrahydro-2H-pyran-4-yl)oxy)phenyl)ethyl)pentane-1-sulfonamide] | 25% | IC50 [3]: 3000 nM |
| O=C1CN(C/C=C/CCCNS(=O)(=O)c2cccc(OCC3CC3)c2)C(=O)N1 [Example 79, (E)-3-(cyclopropylmethoxy)-N-(6-(2,4-dioxoimidazolidin-1-yl)hex-4-en-1-yl)benzenesulfonamide] | 139% |  |
| C[C@@H](NS(=O)(=O)CCCCCN1CC(=O)NC1=O)c1ccc(F)c(OCC2CCC2)c1 [Example 88, (R)—N-(1-(3-(cyclobutylmethoxy)-4-fluorophenyl)ethyl)-5-(2,4-dioxoimidazolidin-1-yl)pentane-1-sulfonamide] | 93% | IC50 [3]: 800 nM |
| CC(C)COc1cc([C@@H](C)NS(=O)(=O)CCCCCN2C(=O)NC(=O)[C@H]2C)ccc1F [Compound 108b, N—((R)-1-(4-fluoro-3-isobutoxyphenyl)ethyl)-5-((R)-5-methyl-2,4-dioxoimidazolidin-1-yl)pentane-1-sulfonamide] | 94% |  |
| O=C1CN(CCCCCS(=O)(=O)NC(c2ccc(F)c(OCC3CC3)c2)C2CC2)C(=O)N1 (centres unmarked) [Example 104, N-(cyclopropyl (3-(cyclopropylmethoxy)-4-fluorophenyl)methyl)-5-(2,4-dioxoimidazolidin-1-yl) pentane-1-sulfonamide] | 57% |  |
| CC(C)COc1cc(C2(NS(=O)(=O)CC/C=C/CN3C(=O)NC(=O)C3(C)C)CC2)ccc1F [118a, (E)-5-(5,5-dimethyl-2,4-dioxoimidazolidin-1-yl)-N-(1-(4-fluoro-3-isobutoxyphenyl)cyclopropyl)pent-3-ene-1-sulfonamide] | 19% |  |
